From patent US9725432B2, “Pyrimidine derivatives for the treatment of bacterial diseases” (JANSSEN R&D IRELAND, priority 2012, dated 2017) come the findings set out here.

Converted amounts (≈) assume the structure as drawn.

In one data set the test system is Staphylococcus aureus. The data set can be described thus: MIC determination of compounds on ECO/PAE/STA in microplates. Conditions: lowest concentration with no growth (90% inhibition of growth), 18-20 hours at 37° C., visual, strain not given. Type of data set: cell-based.

Usually melting point stands for the temperature of the solid-liquid transition. The MIC90 is an inhibitory concentration at the 90% level, which refers to growth in some studies and to a panel of isolates in others. Read a high MIC90 as weaker potency. In turn, `CC(C)(C#N)CN1CCC(c2nc(-c3ccncc3)ncc2-c2cccc(C#N)c2)CC1` [Compound 75] showed a melting point of 79 to 87 °C. Further, in the data set on Staphylococcus aureus, the MIC90 is 0.5 µg/mL (≈ 1.18 µM).
On to `COc1cccc(-c2cnc(-c3ccc(F)cc3)nc2C2CCN(CC(C)(C)C#N)CC2)c1` [Compound 78], for which the melting point stood at 119 °C. In addition, the MIC90 against Staphylococcus aureus was 0.125 µg/mL (≈ 0.281 µM).
For `CC(C)(C#N)CN1CCC(c2nc(-c3cncnc3)ncc2-c2cccc(C#N)c2)CC1` [Compound 82] the same measures were 182 °C and 1 µg/mL (≈ 2.36 µM).
On to `N#Cc1cccc(-c2cnc(-c3ccc(F)cc3)nc2C2CCN(CC(F)(F)F)CC2)c1` [Compound 76], for which the melting point lay in the range of 157 to 158 °C. Further, the MIC90 in the data set on Staphylococcus aureus was determined as 0.125 µg/mL (≈ 0.284 µM).
